Assay results: ChEMBL document CHEMBL1129122, “Synthesis and antimicrobial activity of 4-amino trinems” (1996)
Converted amounts (≈) assume the structure as drawn.

Experiments:
Type in all cases: functional
Pseudomonas aeruginosa = assay: In vitro antibacterial activity against Pseudomonas aeruginosa 1911 strain
Escherichia coli [1] = assay: In vitro antibacterial activity against Escherichia coli 1850 strain
Staphylococcus aureus [2] = assay: In vitro antibacterial activity against Staphylococcus aureus 663 strain
Escherichia coli [3] = assay: In vitro antibacterial activity against Escherichia coli 1919 strain
Enterococcus faecalis = assay: In vitro antibacterial activity against Enterococcus faecalis 850 strain
Staphylococcus aureus [4] = assay: In vitro antibacterial activity against Staphylococcus aureus 853 strain

Molecule C[C@@H](O)[C@H]1C(=O)N2C(C(=O)O)=C3[C@@H](N)CCC[C@@H]3[C@H]12 has an MIC (Pseudomonas aeruginosa) of 4 µg/mL (≈ 15 µM), an MIC (Escherichia coli [1]) of 1 µg/mL (≈ 3.76 µM) and an MIC (Staphylococcus aureus [2]) of 0.25 µg/mL (≈ 0.939 µM). It also gave an MIC (Escherichia coli [3]) of 0.5 µg/mL (≈ 1.88 µM), an MIC (Enterococcus faecalis) of 16 µg/mL (≈ 60.1 µM) and an MIC (Staphylococcus aureus [4]) of 0.25 µg/mL (≈ 0.939 µM).
In the case of C[C@@H](O)[C@H]1C(=O)N2C(C(=O)O)=C3[C@H](CCC[C@@H]3N(C)C)[C@H]12, the MIC (Pseudomonas aeruginosa) is reported as 8 µg/mL (≈ 27.2 µM), the MIC (Escherichia coli [1]) is reported as 2 µg/mL (≈ 6.79 µM) and the MIC (Staphylococcus aureus [2]) is reported as 0.25 µg/mL (≈ 0.849 µM). For the same molecule, the MIC (Escherichia coli [3]) was 1 µg/mL (≈ 3.4 µM), the MIC (Enterococcus faecalis) was over 32 µg/mL and the MIC (Staphylococcus aureus [4]) was 0.25 µg/mL (≈ 0.849 µM).
C[C@@H](O)[C@H]1C(=O)N2C(C(=O)O)=C3[C@@H](NC4CCCC4)CCC[C@@H]3[C@H]12 gave an MIC (Pseudomonas aeruginosa) of 32 µg/mL (≈ 95.7 µM), an MIC (Escherichia coli [1]) of 8 µg/mL (≈ 23.9 µM) and an MIC (Staphylococcus aureus [2]) of 8 µg/mL (≈ 23.9 µM). The MIC (Escherichia coli [3]) was 32 µg/mL (≈ 95.7 µM), the MIC (Enterococcus faecalis) was 32 µg/mL (≈ 95.7 µM) and the MIC (Staphylococcus aureus [4]) was 4 µg/mL (≈ 12 µM).
Work on CN[C@H]1CCC[C@H]2C1=C(C(=O)O)N1C(=O)[C@H]([C@@H](C)O)[C@@H]21 yielded an MIC (Pseudomonas aeruginosa) of 4 µg/mL (≈ 14.3 µM), an MIC (Escherichia coli [1]) of 2 µg/mL (≈ 7.13 µM) and an MIC (Staphylococcus aureus [2]) of 0.25 µg/mL (≈ 0.892 µM). For the same molecule, the MIC (Escherichia coli [3]) was 0.5 µg/mL (≈ 1.78 µM), the MIC (Enterococcus faecalis) was 16 µg/mL (≈ 57.1 µM) and the MIC (Staphylococcus aureus [4]) was 0.5 µg/mL (≈ 1.78 µM).
For CO[C@H]1CCC[C@H]2C1=C(C(=O)[O-])N1C(=O)[C@H]([C@@H](C)O)[C@@H]21.[Na+] [SANFETRINEM SODIUM], the MIC (Pseudomonas aeruginosa) was over 32 µg/mL, the MIC (Escherichia coli [1]) was 0.5 µg/mL and the MIC (Staphylococcus aureus [2]) was 0.25 µg/mL. It also gave an MIC (Escherichia coli [3]) of 0.5 µg/mL, an MIC (Enterococcus faecalis) of 1 µg/mL and an MIC (Staphylococcus aureus [4]) of 0.25 µg/mL.
